Measurements reported in patent publication US6737383B1, “Herbicidal oxadiazolidines” (priority 1999, dated 2004).

Legend:
wild oat = test: Test B pre/postemergence wild oat; assay type: in vivo, Avena fatua
In short: (§1)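 Response is a visual 0-to-10 score relative to untreated plants, where 0 means no effect and 10 means complete control, taken twelve to sixteen days after application. Treatments went onto soil at planting and onto foliage of 1- to 4-leaf plants, using a surfactant-containing non-phytotoxic solvent.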

blackgrass = test: Test B pre/postemergence blackgrass; assay type: in vivo, Alopecurus myosuroides
In short: as §1

pigweed = test: Test B pre/postemergence pigweed; assay type: in vivo, Amaranthus retroflexus
In short: as §1

wheat = test: Test B pre/postemergence wheat; assay type: in vivo, Triticum aestivum
In short: as §1

corn = test: Test B pre/postemergence corn; assay type: in vivo, Zea mays
In short: as §1

duck salad = test: Test B flood test duck salad; assay type: in vivo, Heteranthera limosa
In short: (§2)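 Each value is a visual injury score relative to controls, with 10 meaning complete control and 0 no effect. Evaluation took place twelve to sixteen days after the 2-leaf-stage plants were treated and kept in the greenhouse.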

velvetleaf = test: Test B pre/postemergence velvetleaf; assay type: in vivo, Abutilon theophrasti
In short: as §1

cocklebur = test: Test B pre/postemergence cocklebur; assay type: in vivo, Xanthium strumarium
In short: as §1

surinam grass = test: Test B pre/postemergence surinam grass; assay type: in vivo, Brachiaria decumbens
In short: as §1

bedstraw = test: Test B pre/postemergence bedstraw; assay type: in vivo, Galium aparine
In short: as §1

rice = test: Test B flood test rice; assay type: in vivo, Oryza sativa
In short: as §2

sugar beet = test: Test B pre/postemergence sugar beet; assay type: in vivo, Beta vulgaris
In short: as §1

purple nutsedge = test: Test B pre/postemergence purple nutsedge; assay type: in vivo, Cyperus rotundus
In short: as §1

soybean = test: Test B pre/postemergence soybean; assay type: in vivo, Glycine max
In short: as §1

giant foxtail = test: Test B pre/postemergence giant foxtail; assay type: in vivo, Setaria faberii
In short: as §1

crabgrass = test: Test B pre/postemergence crabgrass; assay type: in vivo, Digitaria sanguinalis
In short: as §1

[1] = Postemergence, Rate 1000 g/ha, scale 0 to 10 (0 no effect, 10 complete control)
[2] = Preemergence, Rate 62 g/ha, scale of 0 to 10 where 0 is no effect and 10 is complete control
[3] = Preemergence, Rate 250 g/ha, scale 0 to 10, 0 is no effect, 10 is complete control
[4] = Preemergence, Rate 500 g/ha, scale 0 to 10 (0 no effect, 10 complete control)
[5] = Rate 125 g/ha, Postemergence, scale 0 to 10
[6] = Rate 500 g/ha, Postemergence, scale 0 to 10
[7] = Rate 1000 g/ha, Preemergence, scale 0 to 10 (0 no effect, 10 complete control)
[8] = Preemergence, Rate 125 g/ha, 0 is no effect, 10 is complete control
[9] = Rate 62 g/ha, Postemergence, scale of 0 to 10 where 0 is no effect and 10 is complete control
[10] = Rate 62 g/ha, headed Pre-emergence (flood test species), scale 0 to 10 (0 no effect, 10 complete control)
[11] = Rate 125 g/ha, Pre-emergence, flood test species, scale 0 to 10 where 0 is no effect and 10 is complete control
[12] = Rate 250 g/ha, Pre-emergence, flood-test species, scale 0 to 10, 0 is no effect, 10 is complete control
[13] = Rate 500 g/ha, headed Pre-emergence (flood test species), scale 0 to 10 (0 no effect, 10 complete control)
[14] = Rate 1000 g/ha, Pre-emergence (as headed), scale 0 to 10

**Q.** What does the source list for `CC(C)N(C(=O)n1oc(=O)n(C2CCCC(C(F)(F)F)C2)c1=O)c1ccc(F)cc1` (stereo not shown) [Compound 184]?
**A.** Wild oats plant response rating (wild oat; [1]): 5; Wild oats plant response rating (wild oat; [2]): 0; Wild oats plant response rating (wild oat; [3]): 0; Wild oats plant response rating (wild oat; [4]): 3; Wild oats plant response rating (wild oat; [5]): 0; Plant response rating (0 to 10; 0 is no effect, 10 is complete control), Wild oats (wild oat; Rate 250 g/ha, Postemergence): 0; Wild oats plant response rating (wild oat; [6]): 2; Plant response rating, Wild oats (wild oat; [7]): 4; Blackgrass plant response rating (blackgrass; [1]): 7; Blackgrass plant response rating (blackgrass; [2]): 0; Blackgrass plant response rating (0 to 10 scale) (blackgrass; [8]): 3; Blackgrass plant response rating (blackgrass; [3]): 5; Blackgrass plant response rating (blackgrass; [4]): 7; Blackgrass plant response rating (blackgrass; [9]): 0; Blackgrass plant response rating (blackgrass; [5]): 1; Plant response rating (0 to 10; 0 is no effect, 10 is complete control), Blackgrass (blackgrass; Rate 250 g/ha, Postemergence): 3; Blackgrass plant response rating (blackgrass; [6]): 4; Plant response rating, Blackgrass (blackgrass; [7]): 7; Redroot pigweed plant response rating (pigweed; [1]): 6; Redroot pigweed plant response rating (pigweed; [2]): 0; Redroot pigweed plant response rating (0 to 10 scale) (pigweed; [8]): 0; Redroot pigweed plant response rating (pigweed; [3]): 0; Redroot pigweed plant response rating (pigweed; [4]): 1; Redroot pigweed plant response rating (pigweed; [9]): 0; Redroot pigweed plant response rating (pigweed; [5]): 4; Plant response rating (0 to 10; 0 is no effect, 10 is complete control), Redroot pigweed (pigweed; Rate 250 g/ha, Postemergence): 7; Redroot pigweed plant response rating (pigweed; [6]): 7; Plant response rating, Redroot pigweed (pigweed; [7]): 2; Wheat plant response rating (wheat; [1]): 3; Wheat plant response rating (wheat; [2]): 0; Wheat plant response rating (wheat; [3]): 0; Wheat plant response rating (wheat; [4]): 0; Wheat plant response rating (wheat; [5]): 2; Plant response rating (0 to 10; 0 is no effect, 10 is complete control), Wheat (wheat; Rate 250 g/ha, Postemergence): 2; Wheat plant response rating (wheat; [6]): 3; Plant response rating, Wheat (wheat; [7]): 0; Corn plant response rating (corn; [1]): 0; Corn plant response rating (corn; [2]): 0; Corn plant response rating (0 to 10 scale) (corn; [8]): 0; Corn plant response rating (corn; [3]): 0; Corn plant response rating (corn; [4]): 0; Corn plant response rating (corn; [9]): 0; Corn plant response rating (corn; [5]): 0; Plant response rating (0 to 10; 0 is no effect, 10 is complete control), Corn (corn; Rate 250 g/ha, Postemergence): 0; Corn plant response rating (corn; [6]): 0; Plant response rating, Corn (corn; [7]): 2; Ducksalad plant response rating (duck salad; [10]): 0; Ducksalad plant response rating (duck salad; [11]): 0; Ducksalad plant response rating (duck salad; [12]): 0; Plant response rating, Ducksalad (duck salad; [13]): 0; Ducksalad plant response rating (duck salad; [14]): 0; Velvetleaf plant response rating (velvetleaf; [1]): 2; Velvetleaf plant response rating (velvetleaf; [2]): 0; Velvetleaf plant response rating (velvetleaf; [3]): 2; Velvetleaf plant response rating (velvetleaf; [4]): 7; Velvetleaf plant response rating (velvetleaf; [5]): 1; Plant response rating (0 to 10; 0 is no effect, 10 is complete control), Velvetleaf (velvetleaf; Rate 250 g/ha, Postemergence): 1; Velvetleaf plant response rating (velvetleaf; [6]): 5; Plant response rating, Velvetleaf (velvetleaf; [7]): 3; Cocklebur plant response rating (cocklebur; [1]): 2; Cocklebur plant response rating (cocklebur; [2]): 0; Cocklebur plant response rating (0 to 10 scale) (cocklebur; [8]): 0; Cocklebur plant response rating (cocklebur; [3]): 0; Cocklebur plant response rating (cocklebur; [4]): 2; Cocklebur plant response rating (cocklebur; [9]): 0; Cocklebur plant response rating (cocklebur; [5]): 0; Plant response rating (0 to 10; 0 is no effect, 10 is complete control), Cocklebur (cocklebur; Rate 250 g/ha, Postemergence): 0; Cocklebur plant response rating (cocklebur; [6]): 1; Plant response rating, Cocklebur (cocklebur; [7]): 3; B. signalgrass plant response rating (surinam grass; [1]): 3; B. signalgrass plant response rating (surinam grass; [2]): 5; B. signalgrass plant response rating (0 to 10 scale) (surinam grass; [8]): 5; B. signalgrass plant response rating (surinam grass; [3]): 8; B. signalgrass plant response rating (surinam grass; [4]): 8; B. signalgrass plant response rating (surinam grass; [9]): 0; B. signalgrass plant response rating (surinam grass; Rate 125 g/ha, Postemergence, scale 0 (no effect) to 10 (complete control)): 0; Plant response rating, B. signalgrass (surinam grass; Rate 250 g/ha, Postemergence, scale 0 to 10, 0 is no effect, 10 is complete control): 0; B. signalgrass plant response rating (surinam grass; Rate 500 g/ha, Postemergence, scale 0 to 10, 0 no effect, 10 complete control): 0; Plant response rating, B. signalgrass (surinam grass; [7]): 5; Bedstraw plant response rating (bedstraw; [2]): 0; Bedstraw plant response rating (0 to 10 scale) (bedstraw; [8]): 0; Bedstraw plant response rating (bedstraw; [3]): 2; Bedstraw plant response rating (bedstraw; [4]): 2; Bedstraw plant response rating (bedstraw; [9]): 0; Bedstraw plant response rating (bedstraw; [5]): 7; Plant response rating (0 to 10; 0 is no effect, 10 is complete control), Bedstraw (bedstraw; Rate 250 g/ha, Postemergence): 3; Bedstraw plant response rating (bedstraw; [6]): 6; Plant response rating, Bedstraw (bedstraw; [7]): 2; Rice plant response rating (rice; [10]): 0; Rice plant response rating (rice; [11]): 0; Rice plant response rating (rice; [12]): 0; Plant response rating, Rice (rice; [13]): 0; Rice plant response rating (rice; [14]): 0; Sugarbeets plant response rating (sugar beet; [1]): 0; Sugarbeets plant response rating (sugar beet; [2]): 0; Sugarbeets plant response rating (0 to 10 scale) (sugar beet; [8]): 0; Sugarbeets plant response rating (sugar beet; [3]): 0; Sugarbeets plant response rating (sugar beet; [4]): 0; Sugarbeets plant response rating (sugar beet; [9]): 2; Sugarbeets plant response rating (sugar beet; [5]): 2; Plant response rating (0 to 10; 0 is no effect, 10 is complete control), Sugarbeets (sugar beet; Rate 250 g/ha, Postemergence): 5; Sugarbeets plant response rating (sugar beet; [6]): 6; Plant response rating, Sugarbeets (sugar beet; [7]): 2; Nutsedge plant response rating (purple nutsedge; [1]): 0; Nutsedge plant response rating (purple nutsedge; [2]): 0; Nutsedge plant response rating (0 to 10 scale) (purple nutsedge; [8]): 0; Nutsedge plant response rating (purple nutsedge; [3]): 0; Nutsedge plant response rating (purple nutsedge; [4]): 0; Nutsedge plant response rating (purple nutsedge; [9]): 0; Nutsedge plant response rating (purple nutsedge; [5]): 0; Plant response rating (0 to 10; 0 is no effect, 10 is complete control), Nutsedge (purple nutsedge; Rate 250 g/ha, Postemergence): 0; Nutsedge plant response rating (purple nutsedge; [6]): 0; Soybean plant response rating (soybean; [1]): 4; Soybean plant response rating (soybean; [2]): 0; Soybean plant response rating (0 to 10 scale) (soybean; [8]): 0; Soybean plant response rating (soybean; [3]): 0; Soybean plant response rating (soybean; [4]): 0; Soybean plant response rating (soybean; [9]): 1; Soybean plant response rating (soybean; [5]): 1; Plant response rating (0 to 10; 0 is no effect, 10 is complete control), Soybean (soybean; Rate 250 g/ha, Postemergence): 3; Soybean plant response rating (soybean; [6]): 3; Plant response rating, Soybean (soybean; [7]): 0; Giant foxtail plant response rating (giant foxtail; [1]): 3; Giant foxtail plant response rating (giant foxtail; [2]): 0; Giant foxtail plant response rating (0 to 10 scale) (giant foxtail; [8]): 9; Giant foxtail plant response rating (giant foxtail; [3]): 10; Giant foxtail plant response rating (giant foxtail; [4]): 10; Giant foxtail plant response rating (giant foxtail; [9]): 0; Giant foxtail plant response rating (giant foxtail; [5]): 0; Plant response rating (0 to 10; 0 is no effect, 10 is complete control), Giant foxtail (giant foxtail; Rate 250 g/ha, Postemergence): 0; Giant foxtail plant response rating (giant foxtail; [6]): 2; Plant response rating, Giant foxtail (giant foxtail; [7]): 10; Crabgrass plant response rating (crabgrass; [1]): 2; Crabgrass plant response rating (crabgrass; [2]): 0; Crabgrass plant response rating (0 to 10 scale) (crabgrass; [8]): 5; Crabgrass plant response rating (crabgrass; [3]): 7; Crabgrass plant response rating (crabgrass; [4]): 9; Crabgrass plant response rating (crabgrass; [9]): 0; Crabgrass plant response rating (crabgrass; [5]): 0; Plant response rating (0 to 10; 0 is no effect, 10 is complete control), Crabgrass (crabgrass; Rate 250 g/ha, Postemergence): 0; Crabgrass plant response rating (crabgrass; [6]): 2; Plant response rating, Crabgrass (crabgrass; [7]): 9
